Results published in EP0087751B1, “Water-soluble peptides from very poorly soluble amino acids” (PFRIMMER KABI GMBH & CO. KG, priority 1982, dated 1985).
Values after ≈ are worked out from the molar mass of the structure shown. Each block holds one compound with its values, some of them ahead of it. Where a SMILES comes first, the peptide text is derived from it.

Columns and labels:
Solubility in water [1] = experiment: Solubility in water
Solubility in water [2] = type: physicochemical; details: for Löslichkeit: in water

solubility (Solubility in water [1]): 0.09 mg/mL (≈ 0.375 mM)
Compound: N[C@@H](CSSC[C@H](N)C(=O)O)C(=O)O [Cystin]

Compound: NCCCC[C@H](N)C(=O)O [Lysin]
solubility (Solubility in water [1]): 666 mg/mL (≈ 4560 mM)

Löslichkeit (Solubility in water [2]; temperature not stated): 622 g/L H20
Faktor besser löslich in Wasser als das freie Tyrosin (Solubility in water [2]; ratio of water solubility of the tripeptide to that of free Tyrosin): 1,62 . 10^3
Compound: N[C@@H](Cc1ccc(O)cc1)C(=O)NCCCC[C@H](NC(=O)[C@@H](N)Cc1ccc(O)cc1)C(=O)O [N^2-Tyrosinyl-N^6-tyrosinyl-lysin, N^2-Tyrosinyl-N^6-L-tyrosinyl-L-lysin] (H-Tyr-Lys(Tyr)-OH)

Löslichkeit (Solubility in water [2]; 20°C): 125 g/L H20
Compound: N^2-Cystinyl-N^6-L-cystinyl-L-lysin [N^2,N^6-Di-L-cystinyl, L-lysin]
